Patent US20250145606A1 (Arcus Biosciences, Inc., priority 2023, published 2025)
Marks after values point to notes of the source that are not given here.

Legend:
[1] = test system: human hepatocytes; assay: Bioactivation assessment in human hepatocytes; type: in vitro ADME; conditions: 5 μM, 4 hours
Description: (§1) Bioactivation Assessment Procedure
(§2) Pooled male Sprague Dawley rat (BioIVT), male beagle dog (BioIVT), male cynomolgus monkey (BioIVT), and a 50-donor pool of cryopreserved human hepatocytes (BioIVT) was thawed in pre-warmed 37° C. InVitroGro™ HT media (BioIVT), centrifuged, and resuspended in the InVitroGro™ HI media (BioIVT). The number of viable cells was determined by the Trypan blue exclusion method. The cells were diluted to a concentration of two million viable cells per milliliter (viability >80%) and seeded into round-bottom 96-well plates. The test articles were dissolved in DMSO and further diluted in 50% CH3CN and InVitroGro™ HI media with final concentrations of 0.05% DMSO and 0.5% CH3CN in the incubation mixture. Incubation was performed at a final concentration of one million cells per milliliter and 5 μM test compounds with continuous shaking at 1100 rpm in a 37° C., 5/95% CO2/air incubator with 100% relative humidity. After 4 hours, the samples were quenched by addition of 3 volumes of CH3CN, vortexed for 15 minutes, and centrifuged at 4200 rpm for 15 minutes at 10° C. (Sorvall Legend XTR centrifuge, Thermo Scientific, Langenselbold, Germany). 80 μL of the resulting supernatant was transferred into a new plate and mixed with 160 μL water followed by liquid chromatography-high resolution mass spectrometry (LC-HRMS) analysis.
(§3) Structural assignments of metabolites were determined through mass spectral analysis. The level of bioactivation was estimated based on the relative peak area of bioactivation products to all identified metabolites. The following equation was used: […]
(§4) Bioactivation products included glutathione conjugates, imine methides, quinones, diols, and other relevant metabolites.

[2] = test system: cynomolgus monkey hepatocytes; assay: Bioactivation assessment in monkey hepatocytes; type: in vitro ADME; conditions: 5 μM, 4 hours
Description: as §1, §2, §3, §4

[3] = biological target: c-Kit (Homo sapiens (Human), UniProt P10721); assay: Inhibition of c-Kit kinase activity (HTRF KinEASE-TK); type: biochemical; conditions: biochemical
Procedure, shortened: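 Human kinases were preincubated 1 h at rt with a 22-point 1:2 compound titration, then run 120 min at rt with biotinylated TK peptide and ATP (2× mix: c-Kit 16 μM, PDGFRα 1 μM, PDGFRβ 40 μM, CSF1R 20 μM). Phosphopeptide was read by HTRF TR-FRET (665/620 nm), and IC50s came from 4-parameter fits.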

Sequence of c-Kit (P10721 26-976): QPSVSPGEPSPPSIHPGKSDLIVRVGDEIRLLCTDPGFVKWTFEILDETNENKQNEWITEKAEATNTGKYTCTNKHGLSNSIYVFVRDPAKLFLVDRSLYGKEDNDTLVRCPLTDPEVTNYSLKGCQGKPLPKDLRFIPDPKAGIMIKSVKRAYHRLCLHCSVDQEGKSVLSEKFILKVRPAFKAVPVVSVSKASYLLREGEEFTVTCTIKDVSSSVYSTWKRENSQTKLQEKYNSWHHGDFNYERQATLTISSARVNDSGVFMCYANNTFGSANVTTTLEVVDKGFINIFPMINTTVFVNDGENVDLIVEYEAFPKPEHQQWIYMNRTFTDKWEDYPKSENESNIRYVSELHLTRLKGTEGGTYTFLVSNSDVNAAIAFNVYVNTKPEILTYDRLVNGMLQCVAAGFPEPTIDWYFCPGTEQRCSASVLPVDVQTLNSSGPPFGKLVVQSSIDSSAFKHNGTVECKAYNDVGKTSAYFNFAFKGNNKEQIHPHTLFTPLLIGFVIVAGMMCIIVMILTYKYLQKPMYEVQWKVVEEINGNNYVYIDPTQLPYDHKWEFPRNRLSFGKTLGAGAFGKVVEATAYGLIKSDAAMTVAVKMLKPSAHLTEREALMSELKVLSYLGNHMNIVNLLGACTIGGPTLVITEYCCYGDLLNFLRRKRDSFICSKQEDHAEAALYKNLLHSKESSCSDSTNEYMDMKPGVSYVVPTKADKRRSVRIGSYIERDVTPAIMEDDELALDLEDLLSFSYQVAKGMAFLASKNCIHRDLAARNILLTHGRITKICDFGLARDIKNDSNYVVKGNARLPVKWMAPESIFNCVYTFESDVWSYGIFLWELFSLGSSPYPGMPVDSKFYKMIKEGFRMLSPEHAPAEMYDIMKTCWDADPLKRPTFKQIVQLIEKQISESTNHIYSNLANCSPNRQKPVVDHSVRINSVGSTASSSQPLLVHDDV

In the case of `Cc1ncc(C(=O)Nc2cc(C(=O)Nc3ccc(CC4CC4)cn3)c(F)cc2C)s1` [Example 5, N-[5-[[5-(Cyclopropylmethyl)pyridin-2-yl]carbamoyl]-4-fluoro-2-methylphenyl]-2-methyl-1,3-thiazole-5-carboxamide], the “Percent of total metabolism via bioactivation, Human hepatocytes” value (from here on “Percent … Human hepatocytes”) [1] is reported as less than 1%, the “Percent of total metabolism via bioactivation, Monkey hepatocytes” value (from here on “Percent … Monkey hepatocytes”) [2] is reported as less than 1% and the IC50 [3] is reported as less than 100 nM.

`Cc1ncc(C(=O)Nc2cc(C(=O)Nc3ccc(OC4CC4)cn3)c(F)cc2C)s1` [Example 2, N-[5-[(5-Cyclopropyloxypyridin-2-yl)carbamoyl]-4-fluoro-2-methylphenyl]-2-methyl-1,3-thiazole-5-carboxamide] gave an IC50 [3] of less than 100 nM.

Work on `Cc1ncc(C(=O)Nc2cc(C(=O)Nc3ccc(OC(F)F)cn3)c(F)cc2C)s1` [Example 38, N-[5-[[5-(difluoromethoxy)pyridin-2-yl]carbamoyl]-4-fluoro-2-methylphenyl]-2-methyl-1,3-thiazole-5-carboxamide] yielded an IC50 ([3]; HTRF KinEASE-TK) of less than 100 nM.

`Cc1ncc(C(=O)Nc2cc(C(=O)Nc3ccc(C4CC4)cn3)c(F)cc2C)s1` [Example 3, N-[5-[(5-Cyclopropylpyridin-2-yl)carbamoyl]-4-fluoro-2-methylphenyl]-2-methyl-1,3-thiazole-5-carboxamide] was tested, and the “Percent … Human hepatocytes” value [1] was less than 0.1%, the “Percent … Monkey hepatocytes” value [2] was 2% and the IC50 [3] was less than 100 nM.

`Cc1ncc(C(=O)Nc2cc(C(=O)Nc3ccc(CC(F)(F)F)cn3)c(F)cc2Cl)s1` [Example 46, N-[2-chloro-4-fluoro-5-[[5-(2,2,2-trifluoroethyl)pyridin-2-yl]carbamoyl]phenyl]-2-methyl-1,3-thiazole-5-carboxamide] showed an IC50 ([3]; HTRF KinEASE-TK) of less than 100 nM.

In the case of `Cc1ncc(C(=O)Nc2cc(C(=O)Nc3ccc(CC(F)(F)F)cn3)c(F)cc2C)s1` [Example 1, N-[4-Fluoro-2-methyl-5-[[5-(2,2,2-trifluoroethyl)pyridin-2-yl]carbamoyl]phenyl]-2-methyl-1,3-thiazole-5-carboxamide], the “Percent … Human hepatocytes” value [1] is reported as less than 0.1%^b, the “Percent … Monkey hepatocytes” value [2] is reported as 4% and the IC50 [3] is reported as less than 100 nM.

Molecule `Cc1ncc(C(=O)Nc2cc(C(=O)Nc3cnc(OCC(C)(F)F)cn3)c(F)cc2C)s1` [Example 4, N-[5-[[5-(2,2-Difluoropropoxy)pyrazin-2-yl]carbamoyl]-4-fluoro-2-methylphenyl]-2-methyl-1,3-thiazole-5-carboxamide] has an IC50 [3] of less than 100 nM.
